Data from patent US4677968A, “Methods of testing the reaction of various substances on living human skin” (priority 1986, dated 1987).

What was measured:
[1] = test system: rat/rat skin sandwich flap (enzyme in the skin, deaminase); assay: Metabolism of vidarabine in the rat/rat skin sandwich flap; type: in vivo; settings: radiolabeled vidarabine on rat/rat flap, half-cell diffusion chamber
Excerpt: (§1) In this example, the procedure followed in Example 1 was followed to produce a rat/rat skin flap with accessible vasculature.
Test compounds were applied to either the host or the graft side of the flap. Test compounds in their vehicles were placed in either a 1.5 cm diameter well, prepared from a HolliSeal® skin barrier (a sheet of silicone material with adhesive on both sides) (Hollister Incorporated, Libertyville, IL), or in a half-cell diffusion chamber. The HolliSeal well is generally covered with Parafilm to prevent evaporation. […]
(§2) At the time of an experiment, with the animal under Ketamine anesthesia, the vessels supplying and draining the flap were exposed through an incision over the inguinal ligament. […] Concentration of radiolabeled compound, or its metabolities, in the blood were subsequently assessed by liquid scintillation counting and chromatographic techniques. Concentrations in the donor chamber were sampled periodically and quantitated in a similar manner.
Additional experiments, using an antiviral substance, vidarabine, have been performed to assess the metabolic activity in the skin. […] Accordingly, radiolabeled vidarabine was placed on a rat/rat skin sandwich flap system, and the amount of vidarabine and its metabolite, ara-H, was measured in the blood draining the flap.

[2] = test system: rat/human flap (host side); assay: Transdermal flux of benzoic acid in the rat/human flap, host side; type: in vivo
Excerpt: (§3) A skin flap was generated by incising the abdominal skin of the rat along three sides. The donor STSG was trimmed to approximate the size of the epigastric flap and was placed in the wound, with the epidermis facing the abdominal musculature of the host. The overlying epigastric host skin was returned to its normal anatomic position. The epigastric skin and the STSG were sutured in place, creating a sandwich having a vascular pedicle sandwiched between the skin layers. This surgical procedure produced a flap which received essentially all of its blood from the superficial epigastric vessels.
(§4) Two weeks later, the femoral vessels distal to the origin of the superficial epigastric vessels were surgically isolated and divided. This manipulation maximized the blood flow from the femoral artery to the sandwich flap. The flap was raised and isolated on its neurovascular pedicle (a single artery, vein, and nerve) using the operating microscope.
(§5) The donor site on the rat's abdomen was covered with a STSG from another syngeneic animal and sutured in place. The flap, on its isolated vascular pedicle, was moved through a subcutaneous tunnel to the rat's dorsum, where it was sutured in place.
Test compounds were applied to either the host or the graft side of the flap. […]
as §2, with “manner. […]” for “manner.”
In this experiment, 20 ug of ^14 C benzoic acid (4.5 uCi) in 95% ethanol was applied to the host side of the flap. […] Thereafter steady state was attained and flux was calculated to be 0.045 uCi/min/cm^2. […]

[3] = test system: rat/rat flap (host skin / grafted skin); assay: Absorption of benzoic acid across host vs. graft side of the rat/rat skin flap (flap blood sampling); type: in vivo
Excerpt: Breeding pairs of nude rats were obtained from the Animal Production Facility of the National Cancer Institutes (Frederick, MD) and the colony was expanded by mating male rats homozygous for nude (athymic) with females heterozygous for nude.
as §3, §4, §5, §1
Test compounds were applied to either the host or the graft side of the flap. Test compounds in their vehicles were placed in either a 1.5 cm diameter well, prepared from a HolliSeal® skin barrier (a sheet of silicone material with adhesive on both sides) (Hollister Incorporated, Libertyville, IL), or in a half-cell diffusion chamber. The HolliSeal well is generally covered with Parafilm to prevent evaporation. The half-cell diffusion chamber has a 2.7 ml volume, an impeller to avoid problems of unstirred solutions, a water jacket to maintain a constant temperature, and a sampling port (Dependable Scientific Glass, Salt Lake City, UT).
In an initial series of experiments ^14 C benzoic acid, specific activity 58.6 mCi/mM (New England Nuclear, Boston MA) in phosphate buffered saline, was used in various concentrations in the HolliSeal well and the half-cell diffusion chamber. These experiments were designed to compare the absorption of benzoic acid across the host and graft sides of the flap as a means of validating the system. In another series of experiments 3H-vidarabine, specific activity 38 mCi/mg (2.7 ml), was added to a half-cell diffusion chamber to validate the flap as a system to study the metabolism of a drug as it crosses the skin. 3H-vidarabine, specific activity 38 mCi/mg (2.7 ml), was added to a half-cell diffusion chamber attached to rat/rat skin sandwich flaps, which had previously been tape-stripped.
At the time of an experiment, with the animal under Ketamine anesthesia, the vessels supplying and draining the flap were exposed through an incision over the inguinal ligament. A venotomy was made in the femoral vein proximal to the juncture of the superficial epigastric vein to sample flap blood. A venotomy was also made in the contralateral femoral view to sample systemic blood. The blood samples (approximately 40 ul) were collected periodically in heparinized microhematocrit capillary tubes. Concentration of radiolabeled compound, or its metabolities, in the blood were subsequently assessed by liquid scintillation counting and chromatographic techniques. Concentrations in the donor chamber were sampled periodically and quantitated in a similar manner. […]

[4] = Role of blood flow on percutaneous absorption (iontophoresis of phenylephrine), rat/rat flap; type: in vivo; settings: rat, in vivo, topical or ocular
Protocol: (§6) In this example the experimental procedure described in Example 1 was followed and a rat/rat flap was prepared using an identical procedure. The purpose of this example is to illustrate the role of blood flow on percutaneous absorption processes. In this example, blood flow was locally altered by iontophoresis of phenylephrine. […] The experiment was repeated two weeks later in a nontreated mode, i.e., no alteration in the microcirculation. […] In the situtaton where there is no alteration in the mircocirculation, peak levels occur in approximately 10 minutes. There results reveal that in situations, where compounds are rapidly absorbed, microcirculation to the skin is of critical importance.

[5] = In vivo topical application of caffeine in the flap system of Example 1; settings: rat, topical or ocular; in vivo, topical application; read-out: time of peak levels of caffeine
Protocol: (§7) Compounds will frequently bind to the skin. Thus, after being absorbed through the outer protective layer, the stratum corneum, there is a possibility that the compound being tested will not be absorbed into the blood stream. It is anticipated that caffeine could be such a product. […] It is surprising to observe peak levels of caffeine within 30 minutes of topical application in the in vivo situation using the system described in Example 1. […] This confirmed the notion that there are binding sites of caffeine within the dermis.

[6] = test system: skin flap (system described in Example 1); assay: as above
Protocol: as §7

human skin = assay: In vitro topical application of caffeine to human skin; type: in vitro ADME
Protocol: as §7

[7] = test system: host rat graft or human graft (rat skin vs. human skin); settings: in vivo
Excerpt: The objective of this experiment was to determine differences in absorption, rat skin vs. human skin, rat graft vs. rat host skin, with a second agent, caffeine.

flap = settings: rat, in vivo
Excerpt: Following an intravenous injection of fluorescein, the amount of fluorescein that moves into tissue, and the rapidity with which it clears, depends upon the volume of blood to the area, the adequacy of venous drainage, and renal clearance. The influx and clearance of fluorescein, as measured with a surface hand-held dermofluorometer, has been evaluated as a function of time after occluding either the supplying artery or the draining vein.
Instrumentation used included: (1) Dermatome (Brown Electro-Dematome, Model 666, Zimmer Inc., Warsaw, IN) to generate the split-thickness skin grafts; (2) an operating microscope (Model OPMI 6-SD Carl Zeiss, West Germany) equipped with a fiberoptic illuminator (Model 310187, Dyonics, Andover, MA), to isolate the microvasculature supplying the skin flap; (3) Laser Doppler flow velocimeter (LD 5000, Med Pacific, Seattle, WA)--to noninvasively assess microcirculation of the skin; (4) electromagnetic blood flow transducer, C type 0.5 mm, 0.8 mm, and 1 mm in diameter (C&C INstruments, Culver City, CA)--to directly assess blood flow through the vessels supplying and draining the flap; and (5) a hand-held fiberoptic dermofluorometer (Fluoroscan-Santa Barbara Technology, Santa Barbara, CA), to assess blood flow by monitoring the appearance and clearance of fluorescein in the flap.

rat/rat flap = assay: Role of blood flow on percutaneous absorption (iontophoresis of phenylephrine), rat/rat flap; type: in vivo; settings: iontophoresis, circumscribed area
Protocol: as §6

[8] = test system: rat/rat skin sandwich flap (enzyme in the skin, deaminase); settings: stated as known; cited from earlier work
[9] = grafted side, three weeks later

## O=c1[nH]cnc2c1ncn2[C@@H]1O[C@H](CO)[C@@H](O)[C@@H]1O [ara-H]
[1]
  back-diffusion through the skin into the donor chamber: diffused back through the skin into the donor chamber

## O=C(O)c1ccccc1 [benzoic acid]
[2]; 20 ug (4.5 uCi) in 95% ethanol
  steady state flux: 0.045 uCi/min/cm^2
  time of peak flux: one
[2]; half-cell diffusion chamber, maximal hydration of the skin
  time of peak flux: ≤ 10 min
[3]; donor well
  decrease in concentration in the donor well (time course): linear with time
[3]; donor well, decreasing from
  benzoic acid concentration in the donor well, start of decrease: 2.2 µg/mL
[3]; donor well, decreasing to
  benzoic acid concentration in the donor well, end of decrease: 0.75 µg/mL
[3]; [9]
  course of flux after the peak: even more rapid decline
  peak flux across the grafted side: 2.2 uCi/min/cm^2
[3]; host skin
  course of flux after the peak: decreased rapidly
[3]; host skin, HolliSeal well, 0.52 uCi/ul in unbuffered water, 100 ul
  time of peak flux: 30 min
[3]; host skin, assuming a blood flow of 1.5 ml/min
  flux across host skin: 0.84 uCi/min/cm^2
[3]; same for host and grafted side
  total amount absorbed: 1.04 µg·min/µL
[4]; decreased microcirculation (iontophoresis of phenylephrine), read-out: time of peak benzoic acid levels in flap blood (converted)
  Tmax: ~140 min
[4]; no alteration in the microcirculation, two weeks later, read-out: time of peak levels in flap blood (converted)
  Tmax: ~10 min

## Cn1c(=O)c2c(ncn2C)n(C)c1=O [caffeine]
[5]
  Tmax: ≤ 30 min
[6]; in vivo, two doses
  effect of a second dose on absorption: greater than predicted absorption
[6]; lower layer of skin / dermis, in vitro vs. in vivo comparison
  binding in the skin: there are binding sites within the lower layer of skin which bind caffeine
Human skin; topical, human skin
  time until appearance in the donor chamber: 6 to 12 h
Human skin; two doses
  effect of a second dose on absorption: did not alter absorption
[7]
  increase in absorption, rat skin relative to human skin: ~8 fold

## O=C1OC2(c3ccc(O)cc3Oc3cc(O)ccc32)c2ccccc21 [fluorescein]
flap
  appearance of fluorescein in the flap: failure of the appearance of fluorescein in the flap

## CNC[C@H](O)c1cccc(O)c1 [phenylephrine]
rat/rat flap
  effect on local microcirculation: decreased microcirculation

## Nc1ncnc2c1ncn2[C@@H]1O[C@H](CO)[C@@H](O)[C@@H]1O [vidarabine]
[8]
  metabolism by an enzyme in the skin, deaminase: metabolized by an enzyme in the skin, deaminase
